In patent US20130236964A1, “METHODS, NUCLEIC ACID CONSTRUCTS AND CELLS FOR TREATING NEURODEGENERATIVE DISORDERS” (RAMOT AT TEL-AVIV UNIVERSITY LTD., priority 2002, published 2013):

What was measured:
[1] = test system: Human BMSCs; assay: Fatty acid composition of BMSC after fatty acid supplementation of media (lipid extraction, gas chromatography); assay type: cell-based
Protocol: DHA and AA were diluted in DMEM with 1% horse serum. α-tocopherol was dissolved in ethanol (absolute) before supplementation. FA and α-tocopherol were stored at 4° C. in darkness to prevent their oxidation. Following forty-eight hours, the “additional differentiation medium” was changed to “differentiation medium”, containing DMEM supplemented with SPN, 2 mM L-glutamine, 200 μM butylated hydroxyanisole (BHA), 1 mM dibutyryl cyclic AMP (dbcAMP), 0.5 mM isobutylmethylxanthine (IBMX), 1 μM retinoic acid (RA) and N2 supplement with increasing amounts of DHA (Sigma) and AA (Sigma) (0, 30, 40, 50 and 60 μM). α-tocopherol was added at a concentration of 40 μM to all samples.
Following removal of medium from the culture dish, adherent cells were washed twice with cold PBS and dried by gentle aspiration with a Pasteur pipette. To each culture dish, 3 ml of a hexane:isopropanol (3:2 vol:vol) (HIP) solvent mixture containing 5 mg/dl butylated hydroxytoluene (BHT) was added. The dishes were gently shaken at room temperature for 10 minutes and the supernates were transferred to methylation tubes. The procedure was repeated with 1.5 ml HIP and the lipid extracts were added to the same tubes. For quantitative experiments which included simultaneous protein determination, lipid extraction was performed with HIP which contained a known amount of heneicosanoic acid (21:0) so as to obtain an internal standard. In addition, for these experiments, known volumes of concentrated cell suspensions were directly extracted with HIP and the protein content was determined from an equal volume of cell concentrates.
The lipid extracts were evaporated to dryness under a stream of nitrogen. […] The tubes were capped under N2, vortexed and heated at 100° C. for 1 hour. The resulting fatty acid methyl esters (FAME) were extracted into hexane, after acidification of the mixture with 3 drops of 3N HCl, and kept under N2 at −20° C. until analysis.
Injection was performed with a split/splitless injector kept at 220° C. at a split ratio of 1:30. Detector temperature was 250° C. The column temperature gradient was as follows: 70° C. for 2 min, increased at a rate of 20° C./min to 150° C. where it remained for 5 min, increased at 3° C./min to 210° C. and a final increase at 10° C./min to 230° C. at which it was kept for 3 min until the end of the run. FAME peaks were integrated and computed with the aid of the Varian Star Integrator computer package and were identified by comparison of their retention times with that of authentic standards. Injection of the samples was performed with the aid of a CTC-AS 200 autosampler.
The amount of individual fatty acids is presented as % weight of the total identified fatty acids and as μg FA/μg protein.

[2] = test system: hBMSc; assay: HPLC analysis of dopamine, DOPA and DOPAC in supernatant of differentiating hBMSc; assay type: cell-based, human; conditions: medium supplemented with 56 mM KCl, 10 minutes incubation
Protocol: hBMSc were cultured as described in Table 6 below. [table] Samples were stabilized by adding 88 μl of 85% orthophosphoric acid and 4.4 mg of metabisulfite to ml sample. Dopamine was extracted by aluminium adsorption (Alumina, Bioanalytical Systems Inc.). Separation of injected samples (50 μl) was effected by isocratic elution on a HPLC-electron chemical detection (HPLC-ECD) system with a reverse-phase C18 column (125×4.6 mm dimension, Hichrom, Inc.) in a monochloroacetate buffer mobile phase. The flow rate was set at 1.2 ml per min, and the oxidative potential of the analytical cell was set at +650 mV. Results were validated by co-elution with dopamine standards under varying buffer conditions and detector settings.

[3] = test system: mBMSc; assay: Differentiation of mouse BMSc into oligodendrocyte precursors (morphology, survival, A2B5 immunoassay); assay type: cell-based; conditions: for effect on cell-morphology (comparison of substances) / neuronal cell morphology: 24 hr incubation; for neuronal cell morphology: inducing substance alone
Protocol: Mice B5/EGFP (male) were sacrificed by cervical dislocation and were prepared with 70% alcohol solution. […] The cell pellet was resuspended in 1 ml growth medium and diluted to 10 ml. The cells were plated in polystyrene plastic tissue cultures 75 cm^2 flask (Corning Incorporated, Corning, N.Y.) in the “proliferation medium” (see Example 1 hereinabove) for one week. The cells were then transferred to polylysin-coated slide-chambers (3200 cells/well), supplemented “proliferation medium” and incubated for 24 hours at 37° C. The growth medium was then replaced with “oligodendrocytes differentiation media” composed of DMEM supplemented with 2 mM glutamine, SPN, one or more of the following substances: bFGF (10 ng/ml), EGF (10-20 ng/ml), Interlukin-1b (20-40 ng/ml), dbcAMP (1-2 mM), retinoic acid (0.5 or 1 μM), neurotrophin-3 (50 or 100 ng/ml), human platelet derived growth factor (PDGF-AA; 5-20 ng/ml), N2 supplement, triiodothyronien (T3; 40 ng/ml) and ciliary neurotrophic factor (20 ng/ml; CNTF).
The cultures were incubated at 37° C. for 1, 2 or 6 days (replacing growth media with fresh media every two days) then fixed in 4% PFA. Cells were blocked in 10% FCS solution then incubated with 5 ug/ml anti-A2B5 monoclonal antibody (1:200; R&D systems; 1:200) overnight at 4° C. Cells were then washed twice in PBS for 10 min and incubated with goat-anti-mouse Cy-3 second antibody (Jackson laboratories; 1:500) at room temperature for 20 min. The incidence of cells stained positive for A2B5 (an early marker of oligodendrocyte progenitors) was determined by using a fluorescent microscope equipped with Image ProPlus cell-counting program (Cybernetics).

[4] = +DHA (30 μM), Additional differentiation medium

Molecule: CCCCC/C=C\C/C=C\C/C=C\C/C=C\CCCC(=O)O [AA, arachidonic acid]
- optimal concentration in the additional differentiation medium to obtain the best cellular FA profile [1]: 40 µM

Molecule: CC/C=C\C/C=C\C/C=C\C/C=C\C/C=C\C/C=C\CCC(=O)O [DHA, docosahexaenoic acid]
- optimal concentration in the additional differentiation medium to obtain the best cellular FA profile [1]: 40 µM
- 20:4 n-6 of BMSC [1, 4]: 8.15 % weight
- 22:6 n-3 of BMSC [1, 4]: 16.70 % weight
- Sum MUFA of BMSC [1, 4]: 24.24 % weight
- Sum PUFA of BMSC [1, 4]: 33.08 % weight
- Sum Saturated fatty acids of BMSC [1, 4]: 42.69 % weight
- 20:4 n-6 of BMSC ([1]; +DHA, Differentiation medium): 5.40 % weight
- 22:6 n-3 of BMSC ([1]; +DHA, Differentiation medium): 13.01 % weight
- Sum MUFA of BMSC ([1]; +DHA, Differentiation medium): 12.32 % weight
- Sum PUFA of BMSC ([1]; +DHA, Differentiation medium): 25.71 % weight
- Sum Saturated fatty acids of BMSC ([1]; +DHA, Differentiation medium): 61.79 % weight

Molecule: [Cl-].[K+] [KCl]
- effect on dopamine secretion [2]: further enhanced dopamine secretion

Molecule: CCCC(=O)Nc1ncnc2c1ncn2[C@@H]1O[C@@H]2COP(=O)(O)O[C@H]2[C@H]1OC(=O)CCC [dbcAMP, dibutyryl cyclic AMP]
- effect on cell-morphology (comparison of substances) [3]: most pronounced effect on cell-morphology
- neuronal cell morphology [3]: Neuronal cell morphology was observed

Molecule: N[C@@H](Cc1cc(I)c(Oc2ccc(O)c(I)c2)c(I)c1)C(=O)O [thyroid factor 3, triiodothyronien]
- effect on cell-morphology (comparison of substances) [3]: most pronounced effect on cell-morphology

Molecule: Cc1c(C)c2c(c(C)c1O)CC[C@@](C)(CCC[C@H](C)CCC[C@H](C)CCCC(C)C)O2 [α-Tocopherol, α-tocopherol]
- effect on PUFA composition of the neuron-like cells ([1]; 40 μM): did not affect the PUFA composition

Molecule: IL-6: IL-6, named only in the result sentence (data not shown)
- effect on cell-morphology (comparison of substances) [3]: most pronounced effect on cell-morphology

Molecule: Interlukin-1b [IL-1b]
- neuronal cell morphology [3]: Neuronal cell morphology was observed

B1: neurotrophin-3 (protein, UniProt P20783 139-257, looked up)
Neurotrophin-3: YAEHKSHRGEYSVCDSESLWVTDKSSAIDIRGHQVTVLGEIKTGNSPVKQYFYETRCKEARPVKNGCRGIDDKHWNSQCKTSQTYVRALTSENNKLVGWRWIRIDTSCVCALSRKIGRT
notes: neurotrophin-3, inducing substance in oligodendrocytes differentiation media
- incidence of antibody-labeled A2B5 (comparison of substances) [3]: highest incidence
- effect on cell-morphology (comparison of substances) [3]: most pronounced effect on cell-morphology
- neuronal cell morphology [3]: Neuronal cell morphology was observed
